Experimental data taken from patent publication US9718828B2 (MERCK SHARP & DOHME CORP., priority 2011, dated 2017).
Structures can show the parent of a compound that is named as a salt.

Biological target: hBTK (full-length BTK, 6HIS-tag cleaved) (Homo sapiens (Human), UniProt Q06187)
Assay: BTK enzymatic activity, LANCE TR-FRET assay (Assay Method C)
Assay type: biochemical
Conditions: LANCE TR-FRET, 50 pM hBTK, 25 μM ATP; class 100-1000 is given as ≧100 nM-<1 μM; read-out: IC50 Btk activity values - Assay Method C

Sequence of hBTK (full-length BTK, 6HIS-tag cleaved) (Q06187 whole entry): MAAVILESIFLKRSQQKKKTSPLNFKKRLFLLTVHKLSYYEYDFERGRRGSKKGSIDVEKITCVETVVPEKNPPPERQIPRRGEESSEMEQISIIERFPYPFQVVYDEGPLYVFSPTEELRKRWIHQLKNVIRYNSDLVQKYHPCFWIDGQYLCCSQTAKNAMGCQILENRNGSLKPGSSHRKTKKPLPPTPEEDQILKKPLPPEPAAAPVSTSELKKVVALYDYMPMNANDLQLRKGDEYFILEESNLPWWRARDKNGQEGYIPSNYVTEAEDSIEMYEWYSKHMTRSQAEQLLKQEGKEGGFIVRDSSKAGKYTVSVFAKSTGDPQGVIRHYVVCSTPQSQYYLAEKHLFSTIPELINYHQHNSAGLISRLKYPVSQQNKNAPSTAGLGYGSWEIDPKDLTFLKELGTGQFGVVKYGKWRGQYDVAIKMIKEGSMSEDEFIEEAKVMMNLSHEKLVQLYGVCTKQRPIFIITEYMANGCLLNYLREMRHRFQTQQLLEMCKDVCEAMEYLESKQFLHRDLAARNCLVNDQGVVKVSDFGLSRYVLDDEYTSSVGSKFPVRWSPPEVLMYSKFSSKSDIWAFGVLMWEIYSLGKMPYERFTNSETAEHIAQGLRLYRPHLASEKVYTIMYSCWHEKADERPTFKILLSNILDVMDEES

Row | Compound | IC50 [nM]
1 | CCOCCN1CCO[C@@H](c2nc(-c3ccc(C(=O)Nc4cc(C(F)(F)F)ccn4)cc3)c3c(N)ncc(C)n23)C1 [Example 541, 4-{8-amino-3-[(2R)-4-(2-ethoxyethyl)morpholin-2-yl]-5-methylimidazo[1,5-a]pyrazin-1-yl}-N-[4-(trifluoromethyl)pyridin-2-yl]benzamide, TFA salt] | < 10
2 | COCCN1CCO[C@@H](c2nc(-c3ccc(C(=O)Nc4cc(C(F)(F)F)ccn4)cc3)c3c(N)ncc(Cl)n23)C1 [Example 542, 4-{8-amino-5-chloro-3-[(2R)-4-(2-methoxyethyl)morpholin-2-yl]imidazo[1,5-a]pyrazin-1-yl}-N-[4-(trifluoromethyl)pyridin-2-yl]benzamide, TFA salt] | < 10
3 | Cc1cnc(N)c2c(-c3ccc(C(=O)Nc4cc(C(F)(F)F)ccn4)cc3)nc([C@H]3CN(C(=O)[C@H](C)O)CCO3)n12 [Example 543, 4-(8-amino-3-{(2R)-4-[(2S)-2-hydroxypropanoyl]morpholin-2-yl}-5-methylimidazo[1,5-a]pyrazin-1-yl)-N-[4-(trifluoromethyl)pyridin-2-yl]benzamide, TFA salt] | < 10
4 | Cc1cnc(N)c2c(-c3ccc(C(=O)Nc4cc(C(F)(F)F)ccn4)cc3)nc([C@H]3CN(C(=O)[C@@H](C)O)CCO3)n12 [Example 544, 4-(8-amino-3-{(2R)-4-[(2R)-2-hydroxypropanoyl]morpholin-2-yl}-5-methylimidazo[1,5-a]pyrazin-1-yl)-N-[4-(trifluoromethyl)pyridin-2-yl]benzamide] | < 10
5 | CS(=O)(=O)CC(=O)N1CCO[C@@H](c2nc(-c3ccc(C(=O)Nc4cc(C(F)(F)F)ccn4)cc3)c3c(N)nccn23)C1 [Example 545, 4-(8-amino-3-{(2R)-4-[(methylsulfonyl)acetyl]morpholin-2-yl}imidazo[1,5-a]pyrazin-1-yl)-N-[4-(trifluoromethyl)pyridin-2-yl]benzamide] | < 10
6 | Nc1nccn2c([C@H]3CN[C@@H](CO)CO3)nc(-c3ccc(C(=O)Nc4cc(C(F)(F)F)ccn4)cc3)c12 [Example 546, 4-{8-amino-3-[(2R,5S)-5-(hydroxymethyl)morpholin-2-yl]imidazo[1,5-a]pyrazin-1-yl}-N-[4-(trifluoromethyl)pyridin-2-yl]benzamide] | < 10
7 | Nc1nccn2c([C@@H]3CN[C@H](CO)CO3)nc(-c3ccc(C(=O)Nc4cc(C(F)(F)F)ccn4)cc3)c12 [Example 547, 4-{8-amino-3-[(2S,5R)-5-(hydroxymethyl)morpholin-2-yl]imidazo[1,5-a]pyrazin-1-yl}-N-[4-(trifluoromethyl)pyridin-2-yl]benzamide, TFA salt] | 10 to 100
8 | Cn1cc(CN2C[C@H](c3nc(-c4ccc(C(=O)Nc5cc(C(F)(F)F)ccn5)cc4)c4c(N)nccn34)OC[C@@H]2CO)cn1 [Example 548, 4-(8-amino-3-{(2R,5S)-5-(hydroxymethyl)-4-[(1-methyl-1H-pyrazol-4-yl)methyl]morpholin-2-yl}imidazo[1,5-a]pyrazin-1-yl)-N-[4-(trifluoromethyl)pyridin-2-yl]benzamide, TFA salt] | < 10
9 | CCN1C[C@H](c2nc(-c3ccc(C(=O)Nc4cc(C(F)(F)F)ccn4)cc3)c3c(N)nccn23)OC[C@@H]1CO [Example 549, 4-{8-amino-3-[(2R,5S)-4-ethyl-5-(hydroxymethyl)morpholin-2-yl]imidazo[1,5-a]pyrazin-1-yl}-N-[4-(trifluoromethyl)pyridin-2-yl]benzamide, TFA salt] | < 10
10 | Nc1nccn2c([C@H]3CN(C4COC4)CCO3)nc(-c3ccc(C(=O)Nc4cc(C(F)(F)F)ccn4)cc3)c12 [Example 550, 4-{8-amino-3-[(2R)-4-oxetan-3-ylmorpholin-2-yl]imidazo[1,5-a]pyrazin-1-yl}-N-[4-(trifluoromethyl)pyridin-2-yl]benzamide, TFA salt] | < 10
11 | COCC(=O)N1CCO[C@@H](c2nc(-c3ccc(C(=O)Nc4cc(C(F)(F)F)ccn4)cc3F)c3c(N)nccn23)C1 [Example 551, 4-{8-amino-3-[(2R)-4-(methoxyacetyl)morpholin-2-yl]imidazo[1,5-a]pyrazin-1-yl}-3-fluoro-N-[4-(trifluoromethyl)pyridin-2-yl]benzamide, TFA salt] | < 10
12 | Cn1ncc2c1CCC[C@H]2n1nc(-c2ccc(C(=O)Nc3cc(C(F)(F)F)ccn3)cc2)c2c(N)ncnc21 [Example 552, 4-{4-amino-1-[(4R)-1-methyl-4,5,6,7-tetrahydro-1H-indazol-4-yl]-1H-pyrazolo[3,4-d]pyrimidin-3-yl}-N-[4-(trifluoromethyl)pyridin-2-yl]benzamide, TFA salt] | < 10
13 | Cn1ncc2c1CCC[C@@H]2n1nc(-c2ccc(C(=O)Nc3cc(C(F)(F)F)ccn3)cc2)c2c(N)ncnc21 [Example 553, 4-{4-amino-1-[(4S)-1-methyl-4,5,6,7-tetrahydro-1H-indazol-4-yl]-1H-pyrazolo[3,4-d]pyrimidin-3-yl}-N-[4-(trifluoromethyl)pyridin-2-yl]benzamide, TFA salt] | < 10
14 | Nc1ncnc2c1c(-c1ccc(C(=O)Nc3cc(C(F)(F)F)ccn3)cc1)nn2[C@@H]1CCCc2[nH]ncc21 [Example 554, 4-{4-amino-1-[(4R)-4,5,6,7-tetrahydro-1H-indazol-4-yl]-1H-pyrazolo[3,4-d]pyrimidin-3-yl}-N-[4-(trifluoromethyl)pyridin-2-yl]benzamide, TFA salt] | 10 to 100
15 | Nc1ncnc2c1c(-c1ccc(C(=O)Nc3cc(C(F)(F)F)ccn3)cc1)nn2[C@H]1CCCc2[nH]ncc21 [Example 555, 4-{4-amino-1-[(4S)-4,5,6,7-tetrahydro-1H-indazol-4-yl]-1H-pyrazolo[3,4-d]pyrimidin-3-yl}-N-[4-(trifluoromethyl)pyridin-2-yl]benzamide, TFA salt] | < 10
16 | Nc1ncnc2c1c(-c1ccc(C(=O)Nc3cc(C(F)(F)F)ccn3)cc1)nn2[C@H]1CC[C@H](C(F)(F)F)NC1 [Example 556, 4-{4-amino-1-[(3S,6R)-6-(trifluoromethyl)piperidin-3-yl]-1H-pyrazolo[3,4-d]pyrimidin-3-yl}-N-[4-(trifluoromethyl)pyridin-2-yl]benzamide, TFA salt] | < 10
17 | Cn1cc2c(n1)CCC[C@H]2n1nc(-c2ccc(C(=O)Nc3cc(C(F)(F)F)ccn3)cc2)c2c(N)ncnc21 [Example 557, 4-{4-amino-1-[(4R)-2-methyl-4,5,6,7-tetrahydro-2H-indazol-4-yl]-1H-pyrazolo[3,4-d]pyrimidin-3-yl}-N-[4-(trifluoromethyl)pyridin-2-yl]benzamide, TFA salt] | 100 to 1000
18 | Cn1cc2c(n1)CCC[C@@H]2n1nc(-c2ccc(C(=O)Nc3cc(C(F)(F)F)ccn3)cc2)c2c(N)ncnc21 [Example 558, 4-{4-amino-1-[(4S)-2-methyl-4,5,6,7-tetrahydro-2H-indazol-4-yl]-1H-pyrazolo[3,4-d]pyrimidin-3-yl}-N-[4-(trifluoromethyl)pyridin-2-yl]benzamide, TFA salt] | < 10
19 | CCn1ncc2c1CCC[C@H]2n1nc(-c2ccc(C(=O)Nc3cc(C(F)(F)F)ccn3)cc2)c2c(N)ncnc21 [Example 559, 4-{4-amino-1-[(4R)-1-ethyl-4,5,6,7-tetrahydro-1H-indazol-4-yl]-1H-pyrazolo[3,4-d]pyrimidin-3-yl}-N-[4-(trifluoromethyl)pyridin-2-yl]benzamide, TFA salt] | < 10
20 | CCn1cc2c(n1)CCC[C@@H]2n1nc(-c2ccc(C(=O)Nc3cc(C(F)(F)F)ccn3)cc2)c2c(N)ncnc21 [Example 560, 4-{4-amino-1-[(4S)-2-ethyl-4,5,6,7-tetrahydro-2H-indazol-4-yl]-1H-pyrazolo[3,4-d]pyrimidin-3-yl}-N-[4-(trifluoromethyl)pyridin-2-yl]benzamide, TFA salt] | 10 to 100
21 | Nc1ncnc2c1c(-c1ccc(C(=O)Nc3cc(C(F)(F)F)ccn3)cc1)nn2[C@@H]1CCCc2c1cnn2CCO [Example 561, 4-{4-amino-1-[(4R)-1-(2-hydroxyethyl)-4,5,6,7-tetrahydro-1H-indazol-4-yl]-1H-pyrazolo[3,4-d]pyrimidin-3-yl}-N-[4-(trifluoromethyl)pyridin-2-yl]benzamide, TFA salt] | < 10
22 | Nc1ncnc2c1c(-c1ccc(C(=O)Nc3cc(C(F)(F)F)ccn3)cc1)nn2[C@@H]1CCCc2nn(CCO)cc21 [Example 562, 4-{4-amino-1-[(4R)-2-(2-hydroxyethyl)-4,5,6,7-tetrahydro-2H-indazol-4-yl]-1H-pyrazolo[3,4-d]pyrimidin-3-yl}-N-[4-(trifluoromethyl)pyridin-2-yl]benzamide, TFA salt] | < 10
23 | Nc1ncnc2c1c(-c1ccc(C(=O)Nc3cc(C(F)(F)F)ccn3)cc1)nn2[C@H]1CCCc2c1cnn2CCO [Example 563, 4-{4-amino-1-[(4S)-1-(2-hydroxyethyl)-4,5,6,7-tetrahydro-1H-indazol-4-yl]-1H-pyrazolo[3,4-d]pyrimidin-3-yl}-N-[4-(trifluoromethyl)pyridin-2-yl]benzamide, TFA salt] | < 10
24 | Nc1ncnc2c1c(-c1ccc(C(=O)Nc3cc(C(F)(F)F)ccn3)cc1)nn2[C@H]1CCCc2nn(CCO)cc21 [Example 564, 4-{4-amino-1-[(4S)-2-(2-hydroxyethyl)-4,5,6,7-tetrahydro-2H-indazol-4-yl]-1H-pyrazolo[3,4-d]pyrimidin-3-yl}-N-[4-(trifluoromethyl)pyridin-2-yl]benzamide, TFA salt] | < 10
25 | CCN1CCC(c2nc(-c3ccc(C(=O)Nc4cc(C(F)(F)F)ccn4)cc3)c3c(N)nccn23)CC1=O (centres unmarked) [Example 573, 4-[8-amino-3-(1-ethyl-2-oxopiperidin-4-yl)imidazo[1,5-a]pyrazin-1-yl]-N-[4-(trifluoromethyl)-pyridin-2-yl]benzamide, TFA salt] | 10 to 100
26 | COCC(=O)N1CCC[C@@H](c2nc(-c3ccc(C(=O)Nc4cc(C(F)(F)F)ccn4)cc3F)c3c(N)nccn23)C1 [Example 575, 4-{8-amino-3-[(3R)-1-(methoxyacetyl)piperidin-3-yl]imidazo[1,5-a]pyrazin-1-yl}-3-fluoro-N-[4-(trifluoromethyl)pyridin-2-yl]benzamide, TFA salt] | < 10
